These results are taken from PubChem BioAssay (NCI).

The structures appear in SMILES notation. Where “and” joins values, the source holds several entries; their conditions need not be identical. Equal values may be shown once.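 The compound was tested at five concentrations on cells cultured in 96-well plates, with a 48-hour exposure period. The concentration for 50% growth inhibition is given as GI50. The concentration for full growth arrest is given as TGI.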

Some test systems named below: DMS 114 small cell lung; LXFL 529 NSCLC; DLD-1 colon; KM20L2 colon; RXF-631 renal; T-47D breast; MDA-N; XF 498 CNS; HOP-18 NSCLC.
Common to all, as to experiment: growth of human tumour cells (NCI), 48 h

Regarding `COC(=O)CCC1CCc2c(OC)ccc(OC)c2C1=O` (stereo not given), the TGI with DMS 114 small cell lung, with LXFL 529 NSCLC, in the test with DLD-1 colon and in the test on KM20L2 colon was greater than 100 µM throughout.
As for `O=C(CC1(O)C(=O)Nc2ccc(Br)cc21)c1ccc(Cl)cc1Cl` (stereo not given), the TGI with DMS 114 small cell lung is 46.8 µM; in the test with LXFL 529 NSCLC it was greater than 100 µM; in the test with RXF-631 renal, greater than 100 µM; in the test on DLD-1 colon, greater than 100 µM; in the test on KM20L2 colon, greater than 100 µM.
Consider `Cc1ccc(C(NC(=O)c2ccccc2)c2ccc3cccnc3c2O)cc1` (stereo not given), for which, in the test with T-47D breast, the GI50 is 478 nM and the TGI was 27.7 µM.
The like results for `COc1cc2c(cc1OC)C(Sc1ccc(SC)cc1)c1c(nc(N)c(C#N)c1N)O2` (stereo not given) were, in that order, 1620 nM and 4.26 µM.
Consider `O=[N+]([O-])c1ccc(Oc2nc(Nc3ccc(O[C@H]4CO[C@H]5[C@@H]4OC[C@@H]5O)c(Cl)c3)ncc2F)c(Cl)c1`, for which, in the test with T-47D breast, the GI50 is 1130 nM and the TGI stood at 8.06 µM.
The corresponding values for `CCN1C(=O)CCCc2c1ccc(Nc1ncc(Cl)c(NC3[C@@H](C(N)=O)[C@@H]4C=C[C@H]3C4)n1)c2OC` (stereo not given in full) are 1910 nM and 14.3 µM.
Consider `COc1cc(OC)c2nccc(NCCCN(C)C)c2c1[N+](=O)[O-]`, for which the TGI in the test on MDA-N and in the test on T-47D breast was greater than 100 µM in each case.
In the case of `Cc1cc2cc3ccc(N(C)C)cc3nc2cc1N`, in the test on T-47D breast, the GI50 is 434 nM and the TGI is 3.5 µM.
The corresponding values for `Cn1nc(-c2ccc(Cl)cc2)nc2c(=O)n(C)c(=O)nc1-2` are 1120 nM and 3.43 µM.
The corresponding values for `N[C@@H]1C(=O)N2C(C(=O)OC(c3ccccc3)c3ccccc3)=C(CCl)CS[C@H]12` are 46000 nM and greater than 100 µM.
Consider `C[N+](C)(C)CC1CCC/C1=N/O` (stereo not given), for which the TGI was 3.1 µM with XF 498 CNS; 39 µM in the test on DMS 114 small cell lung; greater than 100 µM in the test on LXFL 529 NSCLC; greater than 100000 nM in the test with HOP-18 NSCLC; greater than 100 µM in the test on DLD-1 colon; 49.4 µM with KM20L2 colon.
Turning to `Clc1ccc(-c2nnc(-c3cccc4ccccc34)o2)cc1Cl`, the TGI in the test on MDA-N and in the test with T-47D breast was greater than 100 µM each time.
Turning to `O=C(NCCO)c1ccc([N+](=O)[O-])cc1`, the TGI in the test on XF 498 CNS, in the test with DMS 114 small cell lung, in the test with LXFL 529 NSCLC, with RXF-631 renal, in the test with DLD-1 colon and in the test on KM20L2 colon was greater than 100 µM in each case.
Turning to `Cc1nnc2c3nnc(C)n3c3ccccc3n12`, the TGI in the test with XF 498 CNS, in the test on DMS 114 small cell lung, in the test on LXFL 529 NSCLC, with DLD-1 colon and in the test with KM20L2 colon was greater than 100 µM in each case.
For `CCN(Cc1ccc(F)cc1)c1ccc(CO)c(C)c1`, in the test on T-47D breast, the GI50 was 920 nM and the TGI came to 6.95 µM.
For the compound `CS(=O)(=O)NNS(=O)(=O)c1ccccc1`, the TGI with XF 498 CNS, with DMS 114 small cell lung, in the test with LXFL 529 NSCLC, with DLD-1 colon and with KM20L2 colon was greater than 100 µM each time.
For `Cn1c(=O)c(NC(=O)C(Cl)(Cl)Cl)nc2ccccc21`, the TGI with XF 498 CNS, in the test on DMS 114 small cell lung, in the test on LXFL 529 NSCLC, in the test with RXF-631 renal, in the test with DLD-1 colon and with KM20L2 colon was greater than 100 µM throughout.
Take `COc1cccc(/C=N/NC(=S)NC2CC3CCC2C3)c1O` (stereo not given): in the test on T-47D breast, the GI50 is 3130 nM and the TGI is 11.8 µM.
On to `Cc1cn(C2C=CC(CO)O2)c(=O)[nH]c1=O` (stereo not given), for which the TGI in the test on MDA-N and with T-47D breast was greater than 1000 µM throughout.
For the compound `CC(C)(C)c1ccc(OC(=O)Nc2ccc(O)c(C(=O)O)c2)cc1`, the TGI in the test on T-47D breast was greater than 100 µM.
On to `O=C(/C=C/c1ccco1)c1ccc(NCc2nc3ccccc3[nH]2)cc1`, for which the TGI was 26 µM with DMS 114 small cell lung; 28.5 µM in the test on LXFL 529 NSCLC; 44500 nM in the test on HOP-18 NSCLC; 32.4 µM in the test on DLD-1 colon; 35.1 µM in the test on KM20L2 colon.
Take `COc1ccc(S(=O)(=O)NC2=NCCN2C(=S)SN2CCn3c2nsc3=S)cc1`: in the test with T-47D breast, the GI50 is 18300 nM and the TGI was determined as 49.1 µM.
For the compound `S=c1nc(COc2ccc(Cl)cc2Cl)[nH][nH]1`, the TGI in the test on XF 498 CNS, in the test with DMS 114 small cell lung, in the test with LXFL 529 NSCLC, with DLD-1 colon and in the test with KM20L2 colon was greater than 100 µM each time.
For `COc1cc(-c2cc(-c3ccc(Nc4ccnc5cc(Cl)ccc45)cc3)nc(N3CCOCC3)n2)cc(OC)c1OC`, in the test with T-47D breast, the GI50 was 2060 nM and the TGI was found to be 4.65 µM.
On to `COC(=O)C(=CNC(N)=O)C(=O)OC`, for which the TGI with MDA-N and in the test with T-47D breast was greater than 100 µM throughout.
Consider `CC(=O)NC1C(OCc2ccccc2)OC(CO)C(O)C1OC(C)C(=O)N[C@@H](C)C(=O)N[C@H](CCC(=O)OCCNc1c2ccccc2nc2cccc([N+](=O)[O-])c12)C(N)=O` (stereo not given in full), for which the TGI is 0.00839 µM in the test on DMS 114 small cell lung; 0.00267 µM with LXFL 529 NSCLC; 2.89 nM and 8.03 nM in the test on HOP-18 NSCLC; 0.0128 µM with DLD-1 colon; 0.00247 µM with KM20L2 colon.
With `COc1ccc2c(c1)CC[C@@H]1[C@@H]2CC[C@]2(C)[C@@H](NC(=O)/C=C/c3ccc(O)c(O)c3)CC[C@@H]12`, in the test on T-47D breast, the GI50 was 17300 nM and the TGI was found to be 43 µM.
The corresponding values for `Oc1ccc(-c2nc3ccc4[nH]ncc4c3c3c2CCCC3)c(F)c1` are 1570 nM and 6.61 µM.
As to `CC(=O)N1N=C(c2ccc(Nc3ccnc4cc(Cl)ccc34)cc2)CC1c1ccc(Cl)cc1` (stereo not given), in the test with T-47D breast, the GI50 is 1570 nM and the TGI was greater than 100 µM.
Take `CCOC(=O)c1c(C)n(Cc2ccccc2)c2c1cc(O)c1[nH]c(Cc3ccccc3)nc12`: in the test with T-47D breast, the GI50 was 9740 nM and the TGI was greater than 36.6 µM.
For the compound `COc1cccc(-c2nn(-c3ccccc3)cc2-c2ccnc(NCCNC(=O)Nc3cccc(C(F)(F)F)c3)c2)c1`, in the test with T-47D breast, the GI50 was 2230 nM and the TGI is 6.01 µM.
The like results for `COc1ccc(C(c2ccc(OCCN(C)C)cc2)c2cc3ccccc3c3ccccc23)cc1` (stereo not given) were, in that order, 1470 nM and 3.12 µM.
